Measurements: US20110159520A1, “HYBRID PROTEINS COMPRISING MEMBRANE RECEPTOR AND ION CHANNEL, AND THEIR USE AS BIOSENSORS” (UNIVERSITE JOSEPH FOURIER, priority 2008, published 2011)

Experiments:
M2−K 0-20 hybrid protein = target: T1, M2−K 0-20 hybrid protein (UniProt P08172+Q61743); experiment: TEVC recordings from xenopus oocytes expressing M2−K 0-20; type: cell-based, human M2, mouse Kir6.2
T1 construct: expressed in transfected cells; host or cells: Xenopus oocytes injected with cRNA
T1 sequence (P08172+Q61743 with tags, fused parts or gaps): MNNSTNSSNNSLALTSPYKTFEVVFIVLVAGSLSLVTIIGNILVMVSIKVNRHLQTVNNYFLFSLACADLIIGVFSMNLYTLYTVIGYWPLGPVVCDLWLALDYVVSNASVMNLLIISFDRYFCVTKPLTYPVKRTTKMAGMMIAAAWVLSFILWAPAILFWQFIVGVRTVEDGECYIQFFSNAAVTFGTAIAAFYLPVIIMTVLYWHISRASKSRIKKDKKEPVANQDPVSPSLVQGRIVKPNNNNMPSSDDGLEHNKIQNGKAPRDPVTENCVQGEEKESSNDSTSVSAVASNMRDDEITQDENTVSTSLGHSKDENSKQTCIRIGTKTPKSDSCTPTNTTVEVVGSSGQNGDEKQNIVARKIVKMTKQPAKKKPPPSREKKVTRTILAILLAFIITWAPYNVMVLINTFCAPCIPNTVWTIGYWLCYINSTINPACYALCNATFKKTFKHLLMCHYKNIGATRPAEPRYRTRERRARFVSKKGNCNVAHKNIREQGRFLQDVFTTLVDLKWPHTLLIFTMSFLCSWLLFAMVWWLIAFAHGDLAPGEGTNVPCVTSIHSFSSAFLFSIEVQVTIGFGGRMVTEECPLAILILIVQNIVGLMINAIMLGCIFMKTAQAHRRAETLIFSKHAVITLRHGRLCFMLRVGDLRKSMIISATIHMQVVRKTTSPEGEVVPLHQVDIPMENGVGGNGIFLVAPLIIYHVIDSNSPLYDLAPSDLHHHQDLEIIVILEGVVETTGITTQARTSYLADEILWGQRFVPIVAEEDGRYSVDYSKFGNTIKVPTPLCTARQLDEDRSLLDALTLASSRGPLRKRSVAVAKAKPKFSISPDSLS
Procedure: (§1) Whole-cell currents were measured using two-electrode voltage clamp (TEVC). Microelectrodes were filled with 3 M KCl and oocytes were bathed in a solution having (in mM): 91 KCl, 1.8 CaCl2, 1 MgCl2, 5 HEPES (pH 7.4) and 0.3 niflumic acid to block endogenous chloride current.
(§2) The TEVC voltage protocol consisted of 500-ms steps to −50, 0 and +50 mV—during which current was measured—repeated every 5 s, the holding potential being 0 mV.
(§3) Average values are presented as mean±s.e.m. Non-linear least-square curve fitting to the data points obtained at various concentrations of activating or inhibiting ligands was done using a standard Hill equation: […]
(§4) Ba^2+ was used as a generic K^+ channel blocker. Percent changes in current were calculated with respect to the baseline extrapolated from measurements of Ba^2+-sensitive currents before and after agonist application.

M2−K 0-25 hybrid protein = target: T2, M2−K 0-25 hybrid protein (UniProt P08172+Q61743); type: cell-based, human M2, mouse Kir6.2
T2 construct: expressed in transfected cells; host or cells: Xenopus oocytes injected with cRNA (whole-cell TEVC, or outside-out patches excised from them)
T2 sequence (P08172+Q61743 with tags, fused parts or gaps): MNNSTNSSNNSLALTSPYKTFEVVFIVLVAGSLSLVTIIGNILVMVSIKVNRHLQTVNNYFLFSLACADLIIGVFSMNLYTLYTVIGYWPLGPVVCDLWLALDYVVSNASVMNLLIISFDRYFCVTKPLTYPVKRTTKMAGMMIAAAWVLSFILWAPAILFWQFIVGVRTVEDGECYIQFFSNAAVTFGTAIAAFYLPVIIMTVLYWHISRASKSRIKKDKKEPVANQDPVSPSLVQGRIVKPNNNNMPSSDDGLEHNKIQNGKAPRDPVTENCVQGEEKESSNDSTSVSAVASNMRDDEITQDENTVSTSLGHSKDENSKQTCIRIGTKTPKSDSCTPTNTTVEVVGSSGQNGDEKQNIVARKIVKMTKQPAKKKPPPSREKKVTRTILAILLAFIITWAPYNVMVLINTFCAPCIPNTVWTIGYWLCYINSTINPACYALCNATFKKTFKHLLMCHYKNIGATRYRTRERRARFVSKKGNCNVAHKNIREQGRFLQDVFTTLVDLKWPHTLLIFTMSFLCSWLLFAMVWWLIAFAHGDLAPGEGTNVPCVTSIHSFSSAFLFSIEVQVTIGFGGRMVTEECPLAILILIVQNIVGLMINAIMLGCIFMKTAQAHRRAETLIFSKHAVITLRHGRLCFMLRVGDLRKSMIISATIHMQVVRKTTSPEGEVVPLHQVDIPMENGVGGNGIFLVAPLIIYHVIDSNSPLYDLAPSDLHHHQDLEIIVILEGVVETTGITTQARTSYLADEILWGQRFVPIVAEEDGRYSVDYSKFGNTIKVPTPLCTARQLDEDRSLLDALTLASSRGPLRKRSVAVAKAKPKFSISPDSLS
Procedure: Xenopus oocytes defoliculated by collagenase treatment were microinjected with 50 nl of water containing one or a mixture of the following quantities of cRNA:
Oocytes were incubated in individual wells in Barth's solution (KCl 1 mM, MgSO4 0.82 mM, NaCl 88 mM, NaHCO3 2.4 mM, CaCl2 0.41 mM, Ca(NO3)2 0.3 mM, Hepes 16 mM, pH 7.4) supplemented with 100 U·ml^−1 penicillin, 100 μg ml^−1 streptomycin and […] gentamycin, for at least 48 hrs at 19° C. before characterization.
as §1
Unless otherwise specified, the concentration of M2 ligands was 5 μM.
as §2, §3
Ba^2+ was used as a generic K^+ channel blocker. Percent changes in current were calculated with respect to the baseline extrapolated from measurements of Ba^2+-sensitive currents before and after agonist application. This method emphasizes reversibility and provides an underestimate of the true effects. For dose-response data, which were acquired by applying sequentially increasing concentrations of modulator to the same patch or oocyte, changes in current could only be measured with respect to the current before application, yielding somewhat larger values.

D2-K 0-25 hybrid protein = D2-K 0-25 hybrid protein (UniProt P14416+Q61743); details: sulpiride 5 μM during quinpirole 5 μM
Sequence of D2-K 0-25 hybrid protein (P14416+Q61743 fused): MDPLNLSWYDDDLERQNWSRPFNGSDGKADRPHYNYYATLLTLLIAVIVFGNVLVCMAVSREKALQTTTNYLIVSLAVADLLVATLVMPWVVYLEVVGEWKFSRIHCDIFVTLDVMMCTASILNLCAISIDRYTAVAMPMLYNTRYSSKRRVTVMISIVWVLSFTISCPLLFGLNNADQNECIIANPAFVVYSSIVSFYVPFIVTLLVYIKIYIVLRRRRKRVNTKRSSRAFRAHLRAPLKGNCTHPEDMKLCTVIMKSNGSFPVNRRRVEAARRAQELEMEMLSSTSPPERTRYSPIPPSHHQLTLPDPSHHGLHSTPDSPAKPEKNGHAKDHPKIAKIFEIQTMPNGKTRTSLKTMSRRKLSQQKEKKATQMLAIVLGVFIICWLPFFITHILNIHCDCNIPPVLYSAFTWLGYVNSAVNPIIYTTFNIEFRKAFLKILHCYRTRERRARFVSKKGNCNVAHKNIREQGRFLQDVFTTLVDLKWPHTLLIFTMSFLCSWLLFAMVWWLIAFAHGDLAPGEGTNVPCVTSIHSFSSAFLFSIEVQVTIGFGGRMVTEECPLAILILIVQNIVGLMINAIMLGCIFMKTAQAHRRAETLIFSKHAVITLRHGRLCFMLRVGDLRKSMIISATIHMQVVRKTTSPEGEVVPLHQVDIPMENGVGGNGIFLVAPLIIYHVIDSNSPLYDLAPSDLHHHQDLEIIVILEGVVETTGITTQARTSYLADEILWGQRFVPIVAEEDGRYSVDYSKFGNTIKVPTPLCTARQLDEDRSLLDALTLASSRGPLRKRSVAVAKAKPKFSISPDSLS
Procedure: as §1, §2, §3, §4

[1] = test system: CCR2 chemokine receptor fused to Kir6.2 deleted in its N-terminus part; experiment: Electric flux of CCR2-Kir6.2 fusion protein; type: cell-based; details: final concentration from about 0.3 μM to about 2 μM
Sequence of CCR2 chemokine receptor fused to Kir6.2 deleted in its N-terminus part (P41597 1-313 limits assumed): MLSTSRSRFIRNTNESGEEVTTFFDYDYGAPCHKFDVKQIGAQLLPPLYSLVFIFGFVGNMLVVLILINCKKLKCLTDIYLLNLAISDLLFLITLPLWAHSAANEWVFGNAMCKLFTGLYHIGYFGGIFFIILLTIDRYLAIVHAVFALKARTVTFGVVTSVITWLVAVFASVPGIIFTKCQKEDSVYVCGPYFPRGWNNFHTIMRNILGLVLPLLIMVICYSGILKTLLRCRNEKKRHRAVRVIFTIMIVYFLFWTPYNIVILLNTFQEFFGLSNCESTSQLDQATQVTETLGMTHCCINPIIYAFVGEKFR

C[N+](C)(C)CCOC(N)=O [CCh, carbachol]
change of current induced by CCh (dose response) (M2−K 0-20 hybrid protein; increasing CCh concentrations): stimulated, in a dose-dependent manner | change of current induced by CCh (dose response) (M2−K 0-25 hybrid protein; increasing CCh concentrations, M2−K 0-25): stimulated, in a dose-dependent manner

NCCc1ccc(O)c(O)c1 [Dopamine]
sensitivity of M2−K 0-25 to Dopa (M2−K 0-25 hybrid protein; Dopa 5 μM, TEVC): insensitive

CN1[C@@H]2CC[C@H]1C[C@@H](OC(=O)C(CO)c1ccccc1)C2 (stereo partly shown) [atropine]
effect of antagonist on ACh-induced current (M2−K 0-20 hybrid protein; atropine 1 μM with ACh 5 μM): inhibits the ACh-induced current | effect of antagonist on ACh-induced current (M2−K 0-25 hybrid protein): inhibits the ACh-induced current

CCN1CCCC1CNC(=O)c1cc(S(N)(=O)=O)ccc1OC (stereo not shown) [sulpiride]
effect of antagonist on quinpirole-induced decrease in current (D2-K 0-25 hybrid protein): reversed

CCL2: CCR2 agonist: CCL2 or MCP1
generation of electric flux after stimulating the receptor [1]: generation of an electric flux
